Ends that are not written are not given here.
Biological target: RBD domain of the S1 subunit of viral S glycoprotein (Severe acute respiratory syndrome coronavirus 2, UniProt P0DTC2)
Experiment: Binding of the peptides to the RBD domain of viral S glycoprotein (microscale thermophoresis, MST)
Design: species or system SARS-CoV-2
Conditions: for binding strength compared with the native peptide (1d): RBD domain, comparison with peptide 1d

| Compound | binding strength compared with the native peptide (1d) | Kd (peptide-RBD complex, 25° C., cell unit μM, read-out: KD (nM) Tmeasurement 25° C.) |
| --- | --- | --- |
| NC(=O)C[C@H](NC(=O)CNC(=O)[C@H](Cc1ccc(O)cc1)NC(=O)[C@@H](N)CC(=O)O)C(=O)N[C@@H](Cc1c[nH]cn1)C(=O)N[C@@H](CCC(=O)O)C(=O)O [Peptide 2d, DYGNHE] | significantly higher | – |
| CSCC[C@H](N)C(=O)N[C@@H](Cc1ccc(O)cc1)C(=O)NCC(=O)N[C@@H](CC(N)=O)C(=O)N[C@@H](Cc1c[nH]cn1)C(=O)N[C@@H](CCC(=O)O)C(=O)O [Peptide J3.2, MYGNHE] | significantly higher | – |
| MYGNYE [Peptide J3.4, MYGNYE] | – | > 10 µM |

From US20240082341A1, “PEPTIDE FOR USE IN THE TREATMENT OR PREVENTION OF COVID-19” (Instytut Biochemii I Biofizyki Polskiej Akademii Nauk, priority 2020, published 2024)
